Experimental data as given in ChEMBL document CHEMBL4130457, “Discovery of AZD-2098 and AZD-1678, Two Potent and Bioavailable CCR4 Receptor Antagonists” (ACS Med Chem Lett, 2017).
Activity calls are given as the source filed them. The rule behind the calls is not given here.

How the values were obtained:
[1] = Protein binding in human plasma; type: ADME, cell-free; conditions: read-out: PPB (converted)
[2] = target: C-C chemokine receptor type 8 (Homo sapiens) (UniProt P51685); test: Antagonist activity at CCR8 (unknown origin) at 10 uM; type: functional
[3] = target: T1, C-X-C chemokine receptor type 2 (Homo sapiens) (UniProt P25025); test: Antagonist activity at CXCR2 (unknown origin) at 10 uM; type: functional
T1 sequence (whole entry): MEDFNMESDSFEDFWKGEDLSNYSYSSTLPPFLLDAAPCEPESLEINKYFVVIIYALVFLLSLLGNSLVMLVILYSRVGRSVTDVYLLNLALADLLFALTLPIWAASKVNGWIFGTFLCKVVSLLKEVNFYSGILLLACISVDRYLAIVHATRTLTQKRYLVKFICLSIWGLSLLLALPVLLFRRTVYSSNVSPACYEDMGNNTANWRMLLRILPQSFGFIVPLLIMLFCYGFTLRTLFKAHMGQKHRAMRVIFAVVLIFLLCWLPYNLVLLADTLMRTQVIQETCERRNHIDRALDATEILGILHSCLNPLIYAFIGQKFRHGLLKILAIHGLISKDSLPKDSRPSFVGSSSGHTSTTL

[4] = Volume of distribution at steady state in dog at 9 umol/kg, po or 3 umol/kg, iv; type: ADME, organism-based, Canis lupus familiaris; conditions: in vivo, read-out: Vdss
[5] = target: C-C chemokine receptor type 2 (Homo sapiens) (UniProt P41597); test: Antagonist activity at CCR2b (unknown origin) at 10 uM
[6] = target: T2, C-C chemokine receptor type 4 (Homo sapiens, UniProt P51679); test: Antagonist activity at human CCR4 expressed in CHO cells coexpressing CD4+ assessed as inhibition of CCL22 induced Ca2+ mobilization; type: functional, cell-based
T2 sequence (P51679 whole entry): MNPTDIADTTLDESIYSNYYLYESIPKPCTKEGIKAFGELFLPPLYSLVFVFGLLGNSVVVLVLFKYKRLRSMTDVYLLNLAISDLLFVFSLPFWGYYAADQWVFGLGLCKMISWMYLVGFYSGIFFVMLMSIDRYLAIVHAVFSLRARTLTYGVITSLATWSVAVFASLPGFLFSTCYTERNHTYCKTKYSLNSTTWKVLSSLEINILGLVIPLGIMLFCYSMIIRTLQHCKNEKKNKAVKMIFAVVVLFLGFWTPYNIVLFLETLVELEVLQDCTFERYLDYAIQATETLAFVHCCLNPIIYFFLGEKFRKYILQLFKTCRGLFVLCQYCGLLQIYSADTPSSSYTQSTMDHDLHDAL

[7] = Terminal trough concentration in OVA-induced Brown Norway rat plasma at 7.5 umol/kg, po bid measured 12 hrs post last dose; type: ADME, organism-based; conditions: read-out: Cmin
[8] = Ratio of free plasma concentration in Brown Norway rat at 7.5 umol/kg to pIC50 for recombinant human CCR4 expressed in CHO-K1 cells; type: ADME, cell-based; conditions: in vivo
[9] = Oral bioavailability in dog at 9 umol/kg; type: ADME, organism-based, Canis lupus familiaris; conditions: in vivo
[10] = target: T3, C-C chemokine receptor type 4 (Canis lupus familiaris, UniProt Q8MJW8); test: Antagonist activity at dog CCR4
T3 sequence (Q8MJW8 whole entry): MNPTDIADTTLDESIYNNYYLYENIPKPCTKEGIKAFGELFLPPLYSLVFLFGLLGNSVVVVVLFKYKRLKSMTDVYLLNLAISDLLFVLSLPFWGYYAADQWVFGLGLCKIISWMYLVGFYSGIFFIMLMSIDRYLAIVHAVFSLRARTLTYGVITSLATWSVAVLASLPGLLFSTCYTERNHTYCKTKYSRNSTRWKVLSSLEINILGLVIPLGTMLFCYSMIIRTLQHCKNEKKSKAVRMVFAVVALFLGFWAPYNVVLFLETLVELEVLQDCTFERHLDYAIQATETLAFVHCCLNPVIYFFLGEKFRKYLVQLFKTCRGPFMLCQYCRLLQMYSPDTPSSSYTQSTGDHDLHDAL

[11] = Lipophilicity, log P of the compound; type: physicochemical; conditions: octanol/water
[12] = Terminal trough concentration in OVA-induced Brown Norway rat plasma at 3 umol/kg, po bid measured 12 hrs post last dose; type: ADME, organism-based; conditions: read-out: Cmin
Rattus norvegicus = test: Terminal trough concentration in OVA-induced Brown Norway rat plasma at 0.22 to 2.2 umol/kg, po bid measured 12 hrs post last dose; type: ADME, organism-based; conditions: in vivo, BLD = below limit of detection
Hepatocyte = test: Stability in human hepatocytes assessed per million cells
[13] = Antagonist activity at rat CCR4

Chain of C-C chemokine receptor type 8 (Homo sapiens) (P51685 whole entry): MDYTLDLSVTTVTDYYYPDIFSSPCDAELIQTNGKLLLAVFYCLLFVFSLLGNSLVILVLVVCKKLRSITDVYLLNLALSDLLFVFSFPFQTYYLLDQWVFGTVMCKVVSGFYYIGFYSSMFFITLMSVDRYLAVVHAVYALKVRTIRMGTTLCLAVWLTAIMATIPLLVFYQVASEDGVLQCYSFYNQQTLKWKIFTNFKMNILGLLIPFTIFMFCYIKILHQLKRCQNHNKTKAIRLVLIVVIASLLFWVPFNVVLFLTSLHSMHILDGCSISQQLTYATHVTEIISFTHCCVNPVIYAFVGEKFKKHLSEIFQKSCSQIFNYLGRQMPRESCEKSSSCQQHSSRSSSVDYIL
Chain of C-C chemokine receptor type 2 (Homo sapiens) (P41597 whole entry, looked up): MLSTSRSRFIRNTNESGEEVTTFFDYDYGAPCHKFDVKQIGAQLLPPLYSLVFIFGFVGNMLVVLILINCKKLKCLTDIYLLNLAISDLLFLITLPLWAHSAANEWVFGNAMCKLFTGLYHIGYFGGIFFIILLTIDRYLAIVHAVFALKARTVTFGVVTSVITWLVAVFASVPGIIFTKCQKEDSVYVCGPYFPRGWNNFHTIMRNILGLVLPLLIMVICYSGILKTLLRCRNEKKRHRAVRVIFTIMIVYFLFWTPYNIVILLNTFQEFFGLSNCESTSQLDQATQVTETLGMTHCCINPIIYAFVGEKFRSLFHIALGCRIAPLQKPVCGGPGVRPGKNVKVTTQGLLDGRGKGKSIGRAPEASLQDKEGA

COc1nccnc1NS(=O)(=O)c1cccc(Cl)c1Cl
fraction unbound [1]: 0.011 | Activity [2]: inactive | Activity [3]: inactive | Vd [4]: 0.1 L/kg | Activity [5]: inactive | IC50 [6]: 31.6 nM | concentration at 12 h [7]: 140 nM | Ratio [8]: 3 | bioavailability [9]: 100% | IC50 [10]: 25.1 nM | logP [11]: 2.5 | concentration at 12 h [12]: 33 nM | Cmin (Rattus norvegicus): Bld | Stability (Hepatocyte): < 0.2 uL/ml | pIC50 [13]: 8
